Assay results from ChEMBL document CHEMBL4507315 (2021).

Tests used:
[1] = target: Serine/threonine-protein kinase N1 (Homo sapiens) (UniProt Q16512); conditions: Compound concentration 100.0 nM
[2] = target: BDNF/NT-3 growth factors receptor (Homo sapiens) (UniProt Q16620); conditions: Compound concentration 100.0 nM
[3] = target: Serine/threonine-protein kinase STK11 (Homo sapiens) (UniProt Q15831); conditions: Compound concentration 100.0 nM
[4] = target: Serine/threonine-protein kinase PLK2 (Homo sapiens) (UniProt Q9NYY3); conditions: Compound concentration 100.0 nM
[5] = target: Mitogen-activated protein kinase 4 (Homo sapiens) (UniProt P31152); conditions: Compound concentration 100.0 nM
[6] = target: Mitogen-activated protein kinase kinase kinase 3 (Homo sapiens) (UniProt Q99759); conditions: Compound concentration 100.0 nM
[7] = target: RAC-alpha serine/threonine-protein kinase (Homo sapiens) (UniProt P31749); conditions: Compound concentration 100.0 nM
[8] = target: TGF-beta receptor type-1 (Homo sapiens) (UniProt P36897); conditions: Compound concentration 100.0 nM
[9] = target: 5-hydroxytryptamine receptor 2B (Homo sapiens) (UniProt P41595); conditions: Compound concentration 10.0 uM
[10] = target: Ribosomal protein S6 kinase alpha-5 (Homo sapiens) (UniProt O75582); conditions: Compound concentration 100.0 nM
[11] = target: cAMP-dependent protein kinase catalytic subunit alpha (Homo sapiens) (UniProt P17612); conditions: Compound concentration 100.0 nM
[12] = target: Serine/threonine-protein kinase VRK2 (Homo sapiens) (UniProt Q86Y07); conditions: Compound concentration 100.0 nM
[13] = target: Serine/threonine-protein kinase D3 (Homo sapiens) (UniProt O94806); conditions: Compound concentration 100.0 nM
[14] = target: Tyrosine-protein kinase JAK1 (Homo sapiens) (UniProt P23458); conditions: Compound concentration 100.0 nM
[15] = target: TGF-beta receptor type-2 (Homo sapiens) (UniProt P37173); conditions: Compound concentration 100.0 nM
[16] = target: 5'-AMP-activated protein kinase catalytic subunit alpha-1 (Homo sapiens) (UniProt Q13131); conditions: Compound concentration 100.0 nM
[17] = target: Phosphatidylinositol 3-kinase catalytic subunit type 3 (Homo sapiens) (UniProt Q8NEB9); conditions: Compound concentration 100.0 nM
[18] = target: Ribosomal protein S6 kinase alpha-4 (Homo sapiens) (UniProt O75676); conditions: Compound concentration 100.0 nM
[19] = tested on: Epidermal growth factor receptor (Homo sapiens), P00533 [UNDEFINED MUTATION]; conditions: Compound concentration 100.0 nM
[20] = target: Cyclin-dependent kinase 3 (Homo sapiens) (UniProt Q00526); conditions: Compound concentration 100.0 nM
[21] = target: Serine/threonine-protein kinase tousled-like 2 (Homo sapiens) (UniProt Q86UE8); conditions: Compound concentration 100.0 nM
[22] = target: Interleukin-1 receptor-associated kinase 1 (Homo sapiens) (UniProt P51617); conditions: Compound concentration 100.0 nM
[23] = target: Serine/threonine-protein kinase RIO1 (Homo sapiens) (UniProt Q9BRS2); conditions: Compound concentration 100.0 nM
[24] = target: Activated CDC42 kinase 1 (Homo sapiens) (UniProt Q07912); conditions: Compound concentration 100.0 nM
[25] = target: Serine/threonine-protein kinase PAK 3 (Homo sapiens) (UniProt O75914); conditions: Compound concentration 100.0 nM
[26] = target: Serine/threonine-protein kinase TAO1 (Homo sapiens) (UniProt Q7L7X3); conditions: Compound concentration 100.0 nM
[27] = target: Serine/threonine-protein kinase Chk1 (Homo sapiens) (UniProt O14757); conditions: Compound concentration 100.0 nM
[28] = tested on: Phosphatidylinositol 4,5-bisphosphate 3-kinase catalytic subunit alpha isoform (Homo sapiens), P42336 [C420R]; conditions: Compound concentration 100.0 nM
[29] = tested on: Tyrosine-protein kinase ABL1 (Homo sapiens), P00519 [F317L]; conditions: Compound concentration 100.0 nM
[30] = target: Cyclin-dependent kinase-like 3 (Homo sapiens) (UniProt Q8IVW4); conditions: Compound concentration 100.0 nM
[31] = target: Kappa-type opioid receptor (Homo sapiens, UniProt P41145); conditions: Compound concentration 10.0 uM
[32] = target: Serine/threonine-protein kinase/endoribonuclease IRE1 (Homo sapiens) (UniProt O75460); conditions: Compound concentration 100.0 nM
[33] = target: 5-hydroxytryptamine receptor 7 (Homo sapiens) (UniProt P34969); conditions: Compound concentration 10.0 uM
[34] = target: 5'-AMP-activated protein kinase catalytic subunit alpha-2 (Homo sapiens) (UniProt P54646); conditions: Compound concentration 100.0 nM
[35] = target: Tyrosine-protein kinase ABL2 (Homo sapiens) (UniProt P42684); conditions: Compound concentration 100.0 nM
[36] = target: GABA-A receptor; anion channel (Rattus norvegicus) (UniProt O09028+P15431+P18506+P18508+P19969+P20236+P23574+P23576+P28471+P28473+P30191+P62813+P63079+P63138+Q91ZM7+Q9ES14); conditions: Compound concentration 10.0 uM
[37] = target: Mitogen-activated protein kinase kinase kinase 12 (Homo sapiens) (UniProt Q12852); conditions: Compound concentration 100.0 nM
[38] = target: NUAK family SNF1-like kinase 2 (Homo sapiens) (UniProt Q9H093); conditions: Compound concentration 100.0 nM
[39] = target: Serine/threonine-protein kinase 35 (Homo sapiens) (UniProt Q8TDR2); conditions: Compound concentration 100.0 nM
[40] = target: Serine/threonine-protein kinase pim-2 (Homo sapiens) (UniProt Q9P1W9); conditions: Compound concentration 100.0 nM
[41] = target: Serine/threonine-protein kinase Nek7 (Homo sapiens) (UniProt Q8TDX7); conditions: Compound concentration 100.0 nM
[42] = tested on: Proto-oncogene tyrosine-protein kinase receptor Ret (Homo sapiens), P07949 [V804M]; conditions: Compound concentration 100.0 nM
[43] = target: Serine/threonine-protein kinase BRSK1 (Homo sapiens) (UniProt Q8TDC3); conditions: Compound concentration 100.0 nM

Mitogen-activated protein kinase kinase kinase 3 (Homo sapiens), sequence (Q99759 whole entry): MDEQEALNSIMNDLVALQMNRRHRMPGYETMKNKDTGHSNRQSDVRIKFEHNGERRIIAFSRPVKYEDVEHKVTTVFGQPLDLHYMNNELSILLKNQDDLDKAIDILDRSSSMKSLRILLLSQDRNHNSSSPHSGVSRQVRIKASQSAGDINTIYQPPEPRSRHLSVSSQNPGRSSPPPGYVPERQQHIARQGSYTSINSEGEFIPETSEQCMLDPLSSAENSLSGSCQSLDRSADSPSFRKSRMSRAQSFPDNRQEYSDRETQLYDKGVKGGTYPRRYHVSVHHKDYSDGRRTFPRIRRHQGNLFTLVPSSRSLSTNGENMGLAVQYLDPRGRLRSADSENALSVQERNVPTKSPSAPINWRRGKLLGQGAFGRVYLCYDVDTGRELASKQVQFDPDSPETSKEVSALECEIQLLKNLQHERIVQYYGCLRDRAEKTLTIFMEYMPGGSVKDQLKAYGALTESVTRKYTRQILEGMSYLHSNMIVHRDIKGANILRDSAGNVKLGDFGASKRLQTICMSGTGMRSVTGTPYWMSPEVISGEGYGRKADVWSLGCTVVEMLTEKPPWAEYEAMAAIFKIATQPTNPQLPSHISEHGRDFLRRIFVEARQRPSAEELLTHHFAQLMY
Serine/threonine-protein kinase tousled-like 2 (Homo sapiens), sequence (Q86UE8 whole entry, looked up): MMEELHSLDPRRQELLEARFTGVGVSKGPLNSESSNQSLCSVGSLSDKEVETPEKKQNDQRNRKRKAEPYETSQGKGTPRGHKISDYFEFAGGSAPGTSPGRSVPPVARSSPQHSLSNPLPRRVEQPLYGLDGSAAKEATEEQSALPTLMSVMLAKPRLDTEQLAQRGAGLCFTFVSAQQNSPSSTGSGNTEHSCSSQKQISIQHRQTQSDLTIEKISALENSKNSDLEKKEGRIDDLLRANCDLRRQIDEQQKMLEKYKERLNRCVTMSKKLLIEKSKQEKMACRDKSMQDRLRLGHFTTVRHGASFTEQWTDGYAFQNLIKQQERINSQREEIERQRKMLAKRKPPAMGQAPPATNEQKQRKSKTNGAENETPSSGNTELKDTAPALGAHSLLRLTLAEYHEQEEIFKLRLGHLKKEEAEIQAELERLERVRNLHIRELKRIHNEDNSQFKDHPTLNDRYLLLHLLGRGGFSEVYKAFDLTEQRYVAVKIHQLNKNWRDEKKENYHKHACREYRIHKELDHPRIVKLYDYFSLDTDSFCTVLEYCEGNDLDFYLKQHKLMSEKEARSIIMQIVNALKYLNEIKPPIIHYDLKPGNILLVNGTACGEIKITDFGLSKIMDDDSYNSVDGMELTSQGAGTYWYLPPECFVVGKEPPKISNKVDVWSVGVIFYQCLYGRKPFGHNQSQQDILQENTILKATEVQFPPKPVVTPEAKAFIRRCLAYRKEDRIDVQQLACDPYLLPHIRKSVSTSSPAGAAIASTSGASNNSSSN
Cyclin-dependent kinase-like 3 (Homo sapiens), sequence (Q8IVW4 whole entry, looked up): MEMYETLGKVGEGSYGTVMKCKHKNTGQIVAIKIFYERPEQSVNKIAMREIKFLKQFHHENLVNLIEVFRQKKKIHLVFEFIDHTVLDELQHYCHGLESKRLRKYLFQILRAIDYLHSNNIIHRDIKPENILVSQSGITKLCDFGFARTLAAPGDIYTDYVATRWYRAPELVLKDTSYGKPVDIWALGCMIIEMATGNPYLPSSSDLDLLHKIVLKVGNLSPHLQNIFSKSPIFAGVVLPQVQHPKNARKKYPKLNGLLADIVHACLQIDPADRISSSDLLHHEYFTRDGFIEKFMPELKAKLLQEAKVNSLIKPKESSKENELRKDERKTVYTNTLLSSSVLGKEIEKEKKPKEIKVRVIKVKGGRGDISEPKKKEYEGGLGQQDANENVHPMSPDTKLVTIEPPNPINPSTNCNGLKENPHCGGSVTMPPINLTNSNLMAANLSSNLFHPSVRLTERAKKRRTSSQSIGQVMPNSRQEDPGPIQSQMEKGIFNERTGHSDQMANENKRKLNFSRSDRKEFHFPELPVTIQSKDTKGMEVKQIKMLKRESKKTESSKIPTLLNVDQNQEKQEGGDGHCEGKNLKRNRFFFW
Ribosomal protein S6 kinase alpha-4 (Homo sapiens), sequence (O75676 whole entry, looked up): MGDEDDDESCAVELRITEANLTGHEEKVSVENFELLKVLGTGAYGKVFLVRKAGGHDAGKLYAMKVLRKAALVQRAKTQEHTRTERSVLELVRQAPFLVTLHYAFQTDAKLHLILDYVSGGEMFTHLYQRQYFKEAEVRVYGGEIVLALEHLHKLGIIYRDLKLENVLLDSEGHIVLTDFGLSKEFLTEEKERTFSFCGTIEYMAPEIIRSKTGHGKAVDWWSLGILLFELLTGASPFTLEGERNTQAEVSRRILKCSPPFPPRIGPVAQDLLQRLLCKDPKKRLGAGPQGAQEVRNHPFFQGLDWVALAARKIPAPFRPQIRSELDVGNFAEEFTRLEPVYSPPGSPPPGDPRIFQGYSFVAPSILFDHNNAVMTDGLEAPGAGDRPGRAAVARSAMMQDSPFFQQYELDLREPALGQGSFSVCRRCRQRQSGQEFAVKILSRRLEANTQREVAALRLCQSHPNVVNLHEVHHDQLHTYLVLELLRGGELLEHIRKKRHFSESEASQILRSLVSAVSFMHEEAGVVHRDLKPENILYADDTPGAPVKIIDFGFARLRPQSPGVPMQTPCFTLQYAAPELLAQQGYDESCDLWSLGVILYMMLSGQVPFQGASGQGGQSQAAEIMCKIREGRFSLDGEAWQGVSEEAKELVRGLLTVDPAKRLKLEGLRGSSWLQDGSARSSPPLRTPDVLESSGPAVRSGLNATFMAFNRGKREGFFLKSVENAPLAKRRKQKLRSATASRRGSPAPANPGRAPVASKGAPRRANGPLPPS
Serine/threonine-protein kinase RIO1 (Homo sapiens), sequence (Q9BRS2 whole entry): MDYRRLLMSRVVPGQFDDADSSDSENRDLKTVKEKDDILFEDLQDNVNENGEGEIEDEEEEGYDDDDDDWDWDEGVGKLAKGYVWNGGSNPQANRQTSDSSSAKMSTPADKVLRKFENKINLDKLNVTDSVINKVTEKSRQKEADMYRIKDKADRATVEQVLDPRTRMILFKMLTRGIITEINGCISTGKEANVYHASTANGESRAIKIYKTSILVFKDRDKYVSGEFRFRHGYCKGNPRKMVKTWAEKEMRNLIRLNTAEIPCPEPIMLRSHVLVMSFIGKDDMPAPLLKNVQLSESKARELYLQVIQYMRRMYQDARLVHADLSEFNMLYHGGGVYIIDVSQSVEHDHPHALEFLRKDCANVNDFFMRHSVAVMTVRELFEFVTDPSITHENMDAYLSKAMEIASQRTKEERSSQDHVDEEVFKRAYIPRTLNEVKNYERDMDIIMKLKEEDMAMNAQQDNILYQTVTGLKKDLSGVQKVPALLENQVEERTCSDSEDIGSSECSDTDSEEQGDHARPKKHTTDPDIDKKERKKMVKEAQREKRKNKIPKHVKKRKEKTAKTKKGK
Serine/threonine-protein kinase STK11 (Homo sapiens), sequence (Q15831 whole entry): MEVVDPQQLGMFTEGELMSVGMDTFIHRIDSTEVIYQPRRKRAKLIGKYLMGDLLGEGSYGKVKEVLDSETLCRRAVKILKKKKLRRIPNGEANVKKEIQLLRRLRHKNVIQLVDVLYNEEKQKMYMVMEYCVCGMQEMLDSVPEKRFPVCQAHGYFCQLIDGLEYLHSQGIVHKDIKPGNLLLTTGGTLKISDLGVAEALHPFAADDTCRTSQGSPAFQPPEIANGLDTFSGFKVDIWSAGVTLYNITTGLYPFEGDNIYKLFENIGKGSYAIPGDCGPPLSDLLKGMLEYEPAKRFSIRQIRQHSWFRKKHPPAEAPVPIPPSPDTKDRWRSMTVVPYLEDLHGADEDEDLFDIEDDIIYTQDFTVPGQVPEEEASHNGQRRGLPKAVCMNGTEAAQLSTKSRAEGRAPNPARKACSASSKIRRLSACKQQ
RAC-alpha serine/threonine-protein kinase (Homo sapiens), sequence (P31749 whole entry): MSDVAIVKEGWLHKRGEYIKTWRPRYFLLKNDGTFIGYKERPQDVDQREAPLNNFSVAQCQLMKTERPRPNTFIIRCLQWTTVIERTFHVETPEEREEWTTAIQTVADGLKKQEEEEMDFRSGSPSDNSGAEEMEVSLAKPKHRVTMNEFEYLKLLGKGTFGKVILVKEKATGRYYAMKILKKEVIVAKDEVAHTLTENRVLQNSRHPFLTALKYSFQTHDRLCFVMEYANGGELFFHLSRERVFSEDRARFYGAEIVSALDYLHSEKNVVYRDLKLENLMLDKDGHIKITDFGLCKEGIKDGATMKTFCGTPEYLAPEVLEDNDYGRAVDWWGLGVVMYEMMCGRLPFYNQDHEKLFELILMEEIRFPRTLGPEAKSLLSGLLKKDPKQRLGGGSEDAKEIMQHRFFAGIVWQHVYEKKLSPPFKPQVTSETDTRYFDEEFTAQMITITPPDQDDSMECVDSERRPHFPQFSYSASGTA
5'-AMP-activated protein kinase catalytic subunit alpha-2 (Homo sapiens), sequence (P54646 whole entry, looked up): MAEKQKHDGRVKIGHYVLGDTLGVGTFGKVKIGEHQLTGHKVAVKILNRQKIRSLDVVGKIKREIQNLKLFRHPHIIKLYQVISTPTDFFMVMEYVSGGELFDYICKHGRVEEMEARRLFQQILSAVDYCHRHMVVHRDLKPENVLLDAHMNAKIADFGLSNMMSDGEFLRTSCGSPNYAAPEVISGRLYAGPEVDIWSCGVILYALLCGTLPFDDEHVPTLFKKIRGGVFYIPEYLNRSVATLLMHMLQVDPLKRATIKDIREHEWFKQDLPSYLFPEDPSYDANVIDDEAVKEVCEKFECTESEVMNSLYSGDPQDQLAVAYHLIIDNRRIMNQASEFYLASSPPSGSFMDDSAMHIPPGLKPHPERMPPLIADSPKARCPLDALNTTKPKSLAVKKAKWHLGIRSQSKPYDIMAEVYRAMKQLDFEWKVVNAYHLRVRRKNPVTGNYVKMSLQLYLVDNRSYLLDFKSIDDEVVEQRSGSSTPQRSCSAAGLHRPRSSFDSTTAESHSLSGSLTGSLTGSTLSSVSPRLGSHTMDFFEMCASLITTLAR

## O=C(NCCCC1CCCCC1)c1ccc(CNC(=O)c2cnn(-c3ccccc3)c2C(F)(F)F)cc1 [SR-321]
[1]
  residual activity: 100%
[2]
  residual activity: 100%
[3]
  residual activity: 100%
[4]
  residual activity: 100%
[5]
  residual activity: 100%
[6]
  residual activity: 100%
[7]
  residual activity: 100%
[8]
  residual activity: 89%
[9]
  inhibition: 3.69%
[10]
  residual activity: 100%
[11]
  residual activity: 100%
[12]
  residual activity: 100%
[13]
  residual activity: 99%
[14]
  residual activity: 89%
[15]
  residual activity: 100%
[16]
  residual activity: 100%
[17]
  residual activity: 100%
[18]
  residual activity: 90%
[19]
  residual activity: 99%
[20]
  residual activity: 100%
[21]
  residual activity: 100%
[22]
  residual activity: 100%
[23]
  residual activity: 100%
[24]
  residual activity: 100%
[25]
  residual activity: 100%
[26]
  residual activity: 96%
[27]
  residual activity: 100%
[28]
  residual activity: 85%
[29]
  residual activity: 82%
[30]
  residual activity: 100%
[31]
  inhibition: 80.2%
[32]
  residual activity: 94%
[33]
  inhibition: 25.8%
[34]
  residual activity: 100%
[35]
  residual activity: 87%
[36]
  inhibition: -4.39%
[37]
  residual activity: 100%
[38]
  residual activity: 100%
[39]
  residual activity: 100%
[40]
  residual activity: 100%
[41]
  residual activity: 97%
[42]
  residual activity: 100%
[43]
  residual activity: 100%

## Nc1c(C(=O)NCc2ccc(C(=O)NCCCC3CCCCC3)cc2)cnn1-c1ccccc1 [SR-318]
[1]
  residual activity: 96%
[2]
  residual activity: 85%
[3]
  residual activity: 100%
[4]
  residual activity: 100%
[5]
  residual activity: 100%
[6]
  residual activity: 100%
[7]
  residual activity: 100%
[8]
  residual activity: 100%
[9]
  inhibition: 19.9%
[10]
  residual activity: 94%
[11]
  residual activity: 100%
[12]
  residual activity: 92%
[13]
  residual activity: 92%
[14]
  residual activity: 100%
[15]
  residual activity: 99%
[16]
  residual activity: 100%
[17]
  residual activity: 99%
[18]
  residual activity: 98%
[19]
  residual activity: 100%
[20]
  residual activity: 100%
[21]
  residual activity: 100%
[22]
  residual activity: 86%
[23]
  residual activity: 95%
[24]
  residual activity: 89%
[25]
  residual activity: 100%
[26]
  residual activity: 91%
[27]
  residual activity: 100%
[28]
  residual activity: 100%
[29]
  residual activity: 100%
[30]
  residual activity: 97%
[31]
  inhibition: 38.6%
[32]
  residual activity: 100%
[33]
  inhibition: 13.2%
[34]
  residual activity: 100%
[35]
  residual activity: 100%
[36]
  inhibition: 21.7%
[37]
  residual activity: 100%
[38]
  residual activity: 100%
[39]
  residual activity: 100%
[40]
  residual activity: 100%
[41]
  residual activity: 99%
[42]
  residual activity: 98%
[43]
  residual activity: 94%
